Tested on: fibromyalgia patients
Test: Clinical studies in fibromyalgia patients
Format: in vivo, human
Protocol: Pressure of approximate 4 kg/cm^2 is applied manually at multiple anatomic points of patients with fibromyalgia to evaluate pain and tenderness. A useful device for quantitating pain sensitivity is a pressure algometer or dolorimeter. […] Clinical studies are performed in fibromyalgia patients that have not responded to conventional physical therapy and have been present for at least one year. In one embodiment, thalidomide is administered in an amount of 100 to 400 mg per day to patients with fibromyalgia for from three months to one year. A baseline evaluation is performed for the effect of the drug treatment on pain intensity, impact of pain on activities of daily living, and consumption of other pain medications.

**Q.** Which results are given for O=C1CCC(N2C(=O)c3ccccc3C2=O)C(=O)N1 (racemic) [thalidomide, 2-(2,6-dioxo-3-piperidinyl)-1H-isoindole-1,3(2H)-dione]?
**A.** Tolerability of treatment (300 mg continuous oral daily dose): well-tolerated; Analgesic effect in fibromyalgia (100 to 400 mg per day for three months to one year): analgesic benefit

Source: US20050119194A1, “Methods of using and compositions comprising thalidomide for treatment, modification and management of fibromyalgia” (priority 2003, published 2005)
